Laboratory results reported in PMC6816013 (Journal of Medicinal Chemistry, 2019).
Entries after “also recorded” stand apart in the source; their conditions may differ. Where a name gives a salt, the structure may show the parent alone. Read-outs that look alike come from different tables or passages of the source.

Columns and labels:
[1] = system: P. falciparum strain 3D7A; type: cell-based, Plasmodium falciparum
HSA = HSA (Homo sapiens, UniProt P02768); assay: HSA binding (plasma protein binding); type: in vitro ADME
[2] = system: Plasmodium falciparum WT cell line; assay: Growth inhibition of P. falciparum WT cell line at 48 and 72 h; type: cell-based; details: read-out: Pf WT cell line EC50 72h
Cell cytotoxicity assay = type: cell-based; details: for cytotoxicity/cell activity safety window: cytotoxicity EC50 / Pf EC50
[3] = system: Plasmodium falciparum 3D7A; assay: microbe, parasite or virus in culture; details: read-out: Pf EC50
[4] = target: T1, serine/arginine protein kinase 2 (SRPK2 or CLK2) (Plasmodium falciparum, UniProt Q8IL41); assay: Kinobeads competition binding in P. falciparum extract; details: Figure 4a, read-out: Kd^app SRPK2
T1 sequence (Q8IL41 1-1268): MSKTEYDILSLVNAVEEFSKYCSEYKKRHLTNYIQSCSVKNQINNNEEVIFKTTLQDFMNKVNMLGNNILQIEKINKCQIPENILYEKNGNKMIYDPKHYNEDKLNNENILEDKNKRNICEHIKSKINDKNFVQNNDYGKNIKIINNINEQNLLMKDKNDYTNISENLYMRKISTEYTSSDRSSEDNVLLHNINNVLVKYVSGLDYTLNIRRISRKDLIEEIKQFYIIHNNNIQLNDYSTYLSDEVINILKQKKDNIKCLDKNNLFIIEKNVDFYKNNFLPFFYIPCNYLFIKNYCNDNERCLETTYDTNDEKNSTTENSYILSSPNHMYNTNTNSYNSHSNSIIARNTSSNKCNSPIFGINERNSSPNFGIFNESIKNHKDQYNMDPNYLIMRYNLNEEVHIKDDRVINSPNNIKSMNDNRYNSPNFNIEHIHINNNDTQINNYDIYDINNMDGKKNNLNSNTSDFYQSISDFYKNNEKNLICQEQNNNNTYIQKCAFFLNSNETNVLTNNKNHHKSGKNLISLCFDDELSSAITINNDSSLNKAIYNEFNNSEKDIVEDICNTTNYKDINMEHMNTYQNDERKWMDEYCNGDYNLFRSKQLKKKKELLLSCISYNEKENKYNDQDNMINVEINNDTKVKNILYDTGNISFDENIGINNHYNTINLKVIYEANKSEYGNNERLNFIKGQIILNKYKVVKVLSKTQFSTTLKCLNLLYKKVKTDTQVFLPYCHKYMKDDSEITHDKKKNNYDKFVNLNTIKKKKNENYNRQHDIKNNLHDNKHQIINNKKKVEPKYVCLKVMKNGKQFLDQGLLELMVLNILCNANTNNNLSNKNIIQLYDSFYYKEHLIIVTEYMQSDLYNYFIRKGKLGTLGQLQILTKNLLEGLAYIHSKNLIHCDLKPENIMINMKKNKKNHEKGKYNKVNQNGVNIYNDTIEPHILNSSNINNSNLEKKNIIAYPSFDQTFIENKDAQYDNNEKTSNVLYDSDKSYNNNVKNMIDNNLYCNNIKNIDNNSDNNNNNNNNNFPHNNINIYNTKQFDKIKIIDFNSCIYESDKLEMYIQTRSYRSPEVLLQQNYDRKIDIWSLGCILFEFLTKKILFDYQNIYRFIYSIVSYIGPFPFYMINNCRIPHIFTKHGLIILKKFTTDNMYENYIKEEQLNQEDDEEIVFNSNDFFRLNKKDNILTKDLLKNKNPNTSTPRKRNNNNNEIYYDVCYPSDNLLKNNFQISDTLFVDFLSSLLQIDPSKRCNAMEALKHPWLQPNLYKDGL

SRPK2 = target: T2, SRPK2 (Plasmodium falciparum, UniProt Q8IL41); assay: Pull down with compound 31 or 50 attached to beads, competition with free compound; type: binding; details: competed with free analogue, Figure 4b
T2 sequence (Q8IL41 1-1268): T1 sequence (Q8IL41 1-1268)

[5] = Intrinsic clearance in rat liver microsomes; type: in vitro ADME; details: 0.5 µM
[6] = aqueous solubility
[7] = ChromlogD
[8] = system: Plasmodium falciparum 3D7A; details: read-out: Pf EC50; 3D7A asexual blood stage, 48 h [3H]-hypoxanthine assay, maximal concentration 5 μM
[9] = PRR, 10 × EC50, result in words

Sequence of HSA (P02768 25-609): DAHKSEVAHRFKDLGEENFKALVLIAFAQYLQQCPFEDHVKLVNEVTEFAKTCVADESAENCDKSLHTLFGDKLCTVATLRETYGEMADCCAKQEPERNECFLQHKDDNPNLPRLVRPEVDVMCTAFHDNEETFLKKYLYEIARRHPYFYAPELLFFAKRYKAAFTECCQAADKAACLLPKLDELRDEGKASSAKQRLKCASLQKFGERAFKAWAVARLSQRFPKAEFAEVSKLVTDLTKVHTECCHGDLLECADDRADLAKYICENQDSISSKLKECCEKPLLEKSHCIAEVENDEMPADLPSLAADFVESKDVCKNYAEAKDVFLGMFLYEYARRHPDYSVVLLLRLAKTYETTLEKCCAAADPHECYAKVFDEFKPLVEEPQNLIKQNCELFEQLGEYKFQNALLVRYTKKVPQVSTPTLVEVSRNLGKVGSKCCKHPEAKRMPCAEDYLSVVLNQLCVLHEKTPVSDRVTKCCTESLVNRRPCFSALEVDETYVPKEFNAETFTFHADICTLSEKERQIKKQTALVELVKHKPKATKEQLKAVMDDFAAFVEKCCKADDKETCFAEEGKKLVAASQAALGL

Molecule: CN1CCC(c2nc(-c3ccc(F)c(NS(C)(=O)=O)c3)c(-c3ccnc(NCC4CC4)n3)s2)CC1 [Compound 5, reference compound]
- rate of killing in PRR study [1, 9]: slow-acting compound; also recorded: slow parasite killing kinetics
- HSA binding (HSA): 91%
- AMP (Tables 1 and 4): 3.4e-05 cm/s
- AMP (Tables 2 and 5): 3.4e-06 cm/s
- EC50 [2]: 110 nM

Molecule: Cc1cc(Nc2nccc(-c3sc(C4CCNCC4)nc3CN3CCCCC3)n2)ccn1 [Compound 60, N-(2-Methylpyridin-4-yl)-4-(4-(piperidin-1-ylmethyl)-2-(piperidin-4-yl)thiazol-5-yl)pyrimidin-2-amine Trihydrochloride]
- rate of killing in PRR study [1, 9]: potent fast-killing properties
- cytotoxicity/cell activity safety window (Cell cytotoxicity assay): 105

Molecule: Nc1nc(-c2ccc(F)cc2)c(-c2ccnc(Nc3ccc(N4CCOCC4)cc3)n2)s1 [Compound 13, 4-[2-Amino-4-(4-fluorophenyl)-1,3-thiazol-5-yl]-N-[4-(morpholin-4-yl)phenyl]pyrimidin-2-amine]
- EC50 [3]: > 5000 nM

Molecule: O=C1C(O)=C([C@H]2CC[C@H](c3ccc(Cl)cc3)CC2)C(=O)c2ccccc21 [atovaquone]
- rate of killing in PRR study [1, 9]: slow rate of killing

Molecule: Cc1csc(Nc2nccc(-c3sc(C4CCNCC4)nc3-c3ccc(F)cc3)n2)n1 [Compound 21, N-(4-(4-(4-Fluorophenyl)-2-(piperidin-4-yl)thiazol-5-yl)pyrimidin-2-yl)-4-methylthiazol-2-amine]
- HSA binding (HSA): 96%
- AMP (Tables 2 and 5): 1.5e-06 cm/s

Molecule: Fc1ccc(-c2nc(C3CCNCC3)oc2-c2ccnc(Nc3ccncn3)n2)cc1 [Compound 28B]
- HSA binding (HSA): 89%
- AMP (Tables 2 and 5): 1.9e-06 cm/s

Molecule: Cc1nccc(Nc2nccc(-c3sc(C4CCNCC4)nc3-c3ccc(F)cc3)n2)n1 [Compound 29, 4-[4-(4-Fluorophenyl)-2-(piperidin-4-yl)-1,3-thiazol-5-yl]-N-(2-methylpyrimidin-4-yl)pyrimidin-2-amine]
- HSA binding (HSA): 91%
- AMP (Tables 2 and 5): 1.8e-06 cm/s

Molecule: Fc1ccc(-c2nc(C3CCNCC3)sc2-c2ccnc(Nc3cnccn3)n2)cc1 [Compound 26, 4-(4-(4-Fluorophenyl)-2-(piperidin-4-yl)thiazol-5-yl)-N-(pyrazin-2-yl)pyrimidin-2-amine]
- HSA binding (HSA): 92%
- AMP (Tables 2 and 5): 1.6e-06 cm/s

Molecule: Fc1ccc(-c2nc(C3CCNCC3)sc2-c2ccnc(NCCN3CCSCC3)n2)cc1 [Compound 50, 4-(4-(4-Fluorophenyl)-2-(piperidin-4-yl)thiazol-5-yl)-N-(2-thiomorpholinoethyl)pyrimidin-2-amine]
- Kd [4]: > 20 µM
- HSA binding (HSA): 90%
- apparent Kd SRPK2 on immobilized compounds (SRPK2): not bind to 50 attached to beads

Molecule: Cc1cc(Nc2nccc(-c3sc(C4CCNCC4)nc3-c3ccc(F)cc3)n2)ccn1 [Compound 31, 4-(4-(4-Fluorophenyl)-2-(piperidin-4-yl)thiazol-5-yl)-N-(2-methylpyridin-4-yl)pyrimidin-2-amine]
- rate of killing in PRR study [1, 9]: extremely fast-killing effect
- HSA binding (HSA): 97.8%
- AMP (Tables 2 and 5): 2.1e-06 cm/s
- cytotoxicity/cell activity safety window (Cell cytotoxicity assay): 25

Molecule: CN1CCN(c2ccc(Nc3nccc(-c4sc(C5CCNCC5)nc4-c4ccc(F)cc4)n3)cc2)CC1 [Compound 7, reference compound]
- HSA binding (HSA): 97%
- cytotoxicity/cell activity safety window (Cell cytotoxicity assay): 5.4

Molecule: CCc1nc(N)nc(N)c1-c1ccc(Cl)cc1 [pyrimethamine]
- rate of killing in PRR study [1, 9]: moderate rate of killing

Molecule: Cc1cc(Nc2nccc(-c3sc(C4CCNCC4)nc3-c3ccc(F)cc3)n2)on1 [Compound 22, N-(4-(4-(4-Fluorophenyl)-2-(piperidin-4-yl)thiazol-5-yl)pyrimidin-2-yl)-3-methylisoxazol-5-amine]
- HSA binding (HSA): 94%
- AMP (Tables 2 and 5): 1.2e-06 cm/s

Molecule: OC(CNc1nccc(-c2sc(C3CCNCC3)nc2-c2ccc(F)cc2)n1)c1ccncc1 (stereo not drawn) [Compound 40, 2-({4-[4-(4-Fluorophenyl)-2-(piperidin-4-yl)-1,3-thiazol-5-yl]pyrimidin-2-yl}amino)-1-(pyridin-4-yl)ethanol]
- HSA binding (HSA): 85%
- AMP (Tables 2 and 5): 1e-07 cm/s
- EC50 [3]: 1050 nM

Molecule: Cc1nnc(Nc2nccc(-c3sc(C4CCNCC4)nc3-c3ccc(F)cc3)n2)s1 [Compound 20, N-(4-(4-(4-Fluorophenyl)-2-(piperidin-4-yl)thiazol-5-yl)pyrimidin-2-yl)-5-methyl-1,3,4-thiadiazol-2-amine]
- HSA binding (HSA): 92%
- AMP (Tables 2 and 5): 8e-07 cm/s

Molecule: Cc1cc(Nc2nccc(-c3sc(C4CCNCC4)nc3C3CC3)n2)ccn1 [Compound 59, 4-(4-Cyclopropyl-2-(piperidin-4-yl)thiazol-5-yl)-N-(2-methylpyridin-4-yl)pyrimidin-2-amine Dihydrochloride]
- rate of killing in PRR study [1]: potent fast-killing properties
- Cl rat [5]: 1.8 mL/min/g
- AMP (PAMPA): 1.8

Molecule: Cc1nc(Nc2nccc(-c3sc(C4CCNCC4)nc3-c3ccc(F)cc3)n2)ccc1F [Compound 35, N-(5-Fluoro-6-methylpyridin-2-yl)-4-(4-(4-fluorophenyl)-2-(piperidin-4-yl)thiazol-5-yl)pyrimidin-2-amine]
- HSA binding (HSA): 96%
- AMP (Tables 2 and 5): 3e-06 cm/s

Molecule: C[C@H]1[C@H](OC(=O)CCC(=O)O)O[C@@H]2O[C@@]3(C)CC[C@H]4[C@H](C)CC[C@@H]1[C@@]24OO3 [artesunate]
- rate of killing in PRR study [1, 9]: fast rate of killing

Molecule: Nc1nccc(-c2sc(C3CCNCC3)nc2-c2ccc(F)cc2)n1 [Compound 41, 4-[4-(4-Fluorophenyl)-2-(piperidin-4-yl)-1,3-thiazol-5-yl]pyrimidin-2-amine]
- HSA binding (HSA): 75%
- AMP (Tables 1 and 4): 1.3e-05 cm/s

Molecule: 4-(4-(4-Fluorophenyl)-2-(piperidin-4-yl)thiazol-5-yl)-N-(1-(piperidin-4-yl)-1H-pyrazol-3-yl)pyrimidin-2-amine [Compound 24]
- Solubility [6]: 131 µM
- HSA binding (HSA): 93%
- AMP (Tables 2 and 5): 3e-07 cm/s
- EC50 (Cell cytotoxicity assay): 100 µM
- logD [7]: 1.29
- EC50 [8]: 3.31 µM
